PubChem BioAssay AID1963974 (Molecular Pharmacology Branch, DTP, NCI, 2024)

Tested on: 648629-189-R-J1-PDC spheroids with HUVEC/MSC, viability
Assay: Anticancer human tumor 648629-189-R-J1-PDC patient-derived bladder carcinoma cell line growth inhibition [PI3K]
Settings: for IC50: curve of first compound; for viability, T/C: stronger effect = lower value
Procedure, shortened: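 Combination activity was assessed by viability in multicellular tumor spheroids carrying HUVEC and MSC components. Agents were tested with PI3K inhibitors from a Cmax-based top dose (or 10 microM) downward in half-log increments.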

[1] = second compound 0.00316 µM, first compound 0.0316 µM
[2] = second compound 0.00316 µM, first compound 0.1 µM
[3] = second compound 0.00316 µM, first compound 0.316 µM
[4] = second compound 0.00316 µM, first compound 1 µM
[5] = second compound 0.00316 µM, first compound 3.16 µM
[6] = second compound 0.00316 µM, first compound 10 µM
[7] = second compound 0.01 µM, first compound 0.0316 µM
[8] = second compound 0.01 µM, first compound 0.1 µM
[9] = second compound 0.01 µM, first compound 0.316 µM
[10] = second compound 0.01 µM, first compound 1 µM
[11] = second compound 0.01 µM, first compound 3.16 µM
[12] = second compound 0.01 µM, first compound 10 µM
[13] = second compound 0.0316 µM, first compound 0.0316 µM
[14] = second compound 0.0316 µM, first compound 0.1 µM
[15] = second compound 0.0316 µM, first compound 0.316 µM
[16] = second compound 0.0316 µM, first compound 1 µM
[17] = second compound 0.0316 µM, first compound 3.16 µM
[18] = second compound 0.0316 µM, first compound 10 µM
[19] = second compound 0.1 µM, first compound 0.0316 µM
[20] = second compound 0.1 µM, first compound 0.1 µM
[21] = second compound 0.1 µM, first compound 0.316 µM
[22] = second compound 0.1 µM, first compound 1 µM
[23] = second compound 0.1 µM, first compound 3.16 µM
[24] = second compound 0.1 µM, first compound 10 µM
[25] = second compound 0.316 µM, first compound 0.0316 µM
[26] = second compound 0.316 µM, first compound 0.1 µM
[27] = second compound 0.316 µM, first compound 0.316 µM
[28] = second compound 0.316 µM, first compound 1 µM
[29] = second compound 0.316 µM, first compound 3.16 µM
[30] = second compound 0.316 µM, first compound 10 µM
[31] = second compound 1 µM, first compound 0.0316 µM
[32] = second compound 1 µM, first compound 0.1 µM
[33] = second compound 1 µM, first compound 0.316 µM
[34] = second compound 1 µM, first compound 1 µM
[35] = second compound 1 µM, first compound 3.16 µM
[36] = second compound 1 µM, first compound 10 µM
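Also: spheroids exposed to agents for seven days before reading.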
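For viability, T/C in this document: percent of vehicle control luminescence where 100% = DMSO treated spheroids.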

## CC1(C)CCC(Nc2ncc(C(F)(F)F)c(-c3c[nH]c4c(P(C)(C)=O)c(C#N)ccc34)n2)CN1 (centres undefined) + CC(Nc1ccc2c(c1)OCCn1cc(N3C(=O)OCC3C(F)F)nc1-2)C(N)=O
Second compound 0.00316 µM
  IC50: < 0.0316 µM
Second compound 0.01 µM
  IC50: < 0.0316 µM
Second compound 0.0316 µM
  IC50: < 0.0316 µM
Second compound 0.1 µM
  IC50: < 0.0316 µM
Second compound 0.316 µM
  IC50: < 0.0316 µM
Second compound 1 µM
  IC50: < 0.0316 µM
[1]
  viability, T/C: 27.7%
[2]
  viability, T/C: 27.2%
[3]
  viability, T/C: 26.8%
[4]
  viability, T/C: 35.4%
[5]
  viability, T/C: 38.7%
[6]
  viability, T/C: 2.42%
[7]
  viability, T/C: 25.3%
[8]
  viability, T/C: 25.8%
[9]
  viability, T/C: 26.3%
[10]
  viability, T/C: 31.1%
[11]
  viability, T/C: 38.2%
[12]
  viability, T/C: 3.09%
[13]
  viability, T/C: 26.6%
[14]
  viability, T/C: 23.4%
[15]
  viability, T/C: 26.6%
[16]
  viability, T/C: 28.5%
[17]
  viability, T/C: 37.6%
[18]
  viability, T/C: 3%
[19]
  viability, T/C: 24.1%
[20]
  viability, T/C: 23.4%
[21]
  viability, T/C: 26.1%
[22]
  viability, T/C: 23.4%
[23]
  viability, T/C: 33.1%
[24]
  viability, T/C: 2.67%
[25]
  viability, T/C: 23.4%
[26]
  viability, T/C: 25.8%
[27]
  viability, T/C: 23.8%
[28]
  viability, T/C: 28.9%
[29]
  viability, T/C: 29.8%
[30]
  viability, T/C: 2.95%
[31]
  viability, T/C: 19.8%
[32]
  viability, T/C: 22.6%
[33]
  viability, T/C: 26.1%
[34]
  viability, T/C: 23.1%
[35]
  viability, T/C: 27.2%
[36]
  viability, T/C: 1.52%

## Cn1nccc1Nc1nccc(-c2ccn(C(CO)c3ccc(Cl)c(F)c3)c(=O)c2)n1 (centres undefined) + CC(Nc1ccc2c(c1)OCCn1cc(N3C(=O)OCC3C(F)F)nc1-2)C(N)=O
Second compound 0.00316 µM
  IC50: > 10 µM
Second compound 0.01 µM
  IC50: > 10 µM
Second compound 0.0316 µM
  IC50: > 10 µM
Second compound 0.1 µM
  IC50: > 10 µM
Second compound 0.316 µM
  IC50: > 10 µM
Second compound 1 µM
  IC50: > 10 µM
[1]
  viability, T/C: 103%
[2]
  viability, T/C: 105%
[3]
  viability, T/C: 111%
[4]
  viability, T/C: 109%
[5]
  viability, T/C: 109%
[6]
  viability, T/C: 79.3%
[7]
  viability, T/C: 111%
[8]
  viability, T/C: 93%
[9]
  viability, T/C: 102%
[10]
  viability, T/C: 108%
[11]
  viability, T/C: 105%
[12]
  viability, T/C: 81.2%
[13]
  viability, T/C: 107%
[14]
  viability, T/C: 101%
[15]
  viability, T/C: 97.4%
[16]
  viability, T/C: 103%
[17]
  viability, T/C: 106%
[18]
  viability, T/C: 79.1%
[19]
  viability, T/C: 97.2%
[20]
  viability, T/C: 97.5%
[21]
  viability, T/C: 84.9%
[22]
  viability, T/C: 103%
[23]
  viability, T/C: 85.1%
[24]
  viability, T/C: 73%
[25]
  viability, T/C: 82.1%
[26]
  viability, T/C: 86%
[27]
  viability, T/C: 82.7%
[28]
  viability, T/C: 99.8%
[29]
  viability, T/C: 78.3%
[30]
  viability, T/C: 68.8%
[31]
  viability, T/C: 66.2%
[32]
  viability, T/C: 67%
[33]
  viability, T/C: 70.3%
[34]
  viability, T/C: 76.3%
[35]
  viability, T/C: 73%
[36]
  viability, T/C: 62.3%
